Laboratory results taken from patent US12485123B2, “1H-pyrazolo[4,3-d]pyrimidine compounds as toll-like receptor 7 (TLR7) agonists” (BRISTOL-MYERS SQUIBB COMPANY, priority 2020, dated 2025).

Tests used:
CD69 = test: Induction of CD69 in human whole blood; type: cell-based; conditions: 17 hrs incubation, CD69 surface staining, 100% set to 1 uM of resiquimod, average where assay repeated, read-out: hWB CD69 EC50
Description: Induction of Type I Interferon Genes (MX-1) and CD69 in Human Blood
The induction of Type I interferon (IFN) MX-1 genes and the B-cell activation marker CD69 are downstream events that occur upon activation of the TLR7 pathway. The following is a human whole blood assay that measures their induction in response to a TLR7 agonist.
Heparinized human whole blood was harvested from human subjects and treated with test TLR7 agonist compounds at 1 mM. The blood was diluted with RPMI 1640 media and Echo was used to predot 10 nL per well giving a final concentration of 1 uM (10 nL in 10 uL of blood). After mixing on a shaker for 30 sec, the plates were covered and placed in a 37° C. chamber for o/n=17 hrs. Fixing/lysis buffer was prepared (5×→1× in H2O, warm at 37° C.; Cat #BD 558049) and kept the perm buffer (on ice) for later use.
For surface markers staining (CD69): prepared surface Abs: 0.045 ul hCD14-FITC (ThermoFisher Cat #MHCD1401)+0.6 ul hCD19-ef450 (ThermoFisher Cat #48-0198-42)+1.5 ul hCD69-PE (cat #BD555531)+0.855 ul FACS buffer. Added 3 ul/well, spin 1000 rpm for 1 min and mixed on shaker for 30 sec, put on ice for 30 min. Stop stimulation after 30 minutes with 70 uL of prewarmed 1× fix/lysis buffer and use Feliex mate to resuspend (15 times, change tips for each plate) and incubate at 37 C for 10 minutes.
Centrifuge at 2000 rpm for 5 minutes aspirate with HCS plate washer, mix on shaker for 30 sec and then wash with 70 uL in dPBS and pelleted 2×s (2000 rpm for 5 min) and 50 ul wash in FACS buffer pelleted 1×s (2000 rpm for 5 min). Mix on shaker for 30 sec. For Intracellular markers staining (MX-1): Add 50 ul of BD Perm buffer III and mix on shaker for 30 sec. Incubate on ice for 30 minutes (in the dark). Wash with 50 uL of FACS buffer 2× (spin @2300 rpm×5 min after perm) followed by mixing on shaker for 30 sec. Resuspended in 20 ul of FACS buffer containing MX1 antibody ( )(4812)-Alexa 647: Novus Biologicals #NBP2-43704AF647) 20 ul FACS bf+0.8 ul hIgG+0.04 ul MX-1. Spin 1000 rpm for 1 min, mix on shaker for 30 se and the samples were incubated at RT in the dark for 45 minutes followed by washing 2×FACS buffer (spin @2300 rpm×5 min after perm). Resuspend 20 ul (35 uL total per well) of FACS buffer and cover with foil and place in 4° C. to read the following day. Plates were read on iQuePlus. The results were loaded into toolset and […] curves are generated in curve master. The y-axis 100% is set to 1 uM of resiquimod.

human TLR7 = target: T1, human TLR7 (Homo sapiens, UniProt Q9NYK1); test: Human TLR7 agonist activity reporter assay (HEK-Blue TLR7 cells, SEAP reporter); type: cell-based; conditions: human TLR7 (hTLR7) reporter assay, SEAP readout after 18 h, average where assay repeated, read-out: TLR7 Agonism EC50
T1 construct: host or cells: HEK-Blue TLR7 cells (engineered human embryonic kidney cells)
T1 sequence (Q9NYK1 27-1049): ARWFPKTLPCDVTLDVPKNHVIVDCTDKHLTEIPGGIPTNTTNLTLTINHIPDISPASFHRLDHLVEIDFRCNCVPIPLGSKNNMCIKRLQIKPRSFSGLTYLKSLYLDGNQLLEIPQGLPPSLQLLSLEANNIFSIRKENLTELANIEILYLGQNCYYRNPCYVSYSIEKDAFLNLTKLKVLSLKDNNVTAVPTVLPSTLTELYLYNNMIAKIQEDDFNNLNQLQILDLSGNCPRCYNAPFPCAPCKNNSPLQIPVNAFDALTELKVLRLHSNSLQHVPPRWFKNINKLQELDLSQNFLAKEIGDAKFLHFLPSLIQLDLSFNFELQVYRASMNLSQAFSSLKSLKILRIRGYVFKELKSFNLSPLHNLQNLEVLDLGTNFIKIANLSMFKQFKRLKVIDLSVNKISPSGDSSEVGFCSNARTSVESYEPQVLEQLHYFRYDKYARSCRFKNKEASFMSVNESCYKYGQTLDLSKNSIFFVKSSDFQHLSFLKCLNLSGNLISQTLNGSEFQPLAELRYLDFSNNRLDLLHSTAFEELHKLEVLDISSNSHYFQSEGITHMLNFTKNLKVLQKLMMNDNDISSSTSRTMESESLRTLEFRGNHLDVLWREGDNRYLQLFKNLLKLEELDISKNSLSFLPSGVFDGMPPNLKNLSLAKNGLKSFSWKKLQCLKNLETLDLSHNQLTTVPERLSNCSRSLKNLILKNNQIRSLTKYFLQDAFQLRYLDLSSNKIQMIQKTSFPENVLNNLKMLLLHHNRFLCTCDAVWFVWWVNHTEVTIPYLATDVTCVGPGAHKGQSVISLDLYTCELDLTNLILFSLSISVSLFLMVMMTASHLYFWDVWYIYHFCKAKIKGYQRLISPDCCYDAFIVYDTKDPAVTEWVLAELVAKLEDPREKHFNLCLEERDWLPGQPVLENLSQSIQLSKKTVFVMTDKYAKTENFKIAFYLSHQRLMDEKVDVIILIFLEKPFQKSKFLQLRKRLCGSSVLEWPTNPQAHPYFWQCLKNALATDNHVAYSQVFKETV
Description: Human TLR7 Agonist Activity Assay
This procedure describes a method for assaying human TLR7 (hTLR7) agonist activity of the compounds disclosed in this specification.
HEK-Blue™ TLR7 cells were added to each well of a 384-well tissue-culture plate (15,000 cells per well) and incubated 16-18 h at 37° C., 5% CO2. Compounds (100 nl) were dispensed into wells containing the HEK-Blue™ TLR cells and the treated cells were incubated at 37° C., 5% CO2. After 18 h treatment ten microliters of freshly-prepared Quanti-Blue™ reagent (Invivogen) was added to each well, incubated for 30 min (37° C., 5% CO2) and SEAP levels measured using an Envision plate reader (OD=620 nm).

SMILES | EC50 (CD69) | EC50 (human TLR7)
CCC[C@@H](CCO)Nc1nc(N)nc2cnn(Cc3ccc(C(=O)N4CC5(COC5)C4)c4cccnc34)c12 [Compound 127, (3S)-3-({5-amino-1-[(5-{2-oxa-6-azaspiro[3.3]heptane-6-carbonyl}quinolin-8-yl)methyl]-1H-pyrazolo[4,3-d]pyrimidin-7-yl}amino)hexan-1-ol] | 91.9 nM | 54.8 nM
CCC[C@@H](CCO)Nc1nc(N)nc2cnn(Cc3ccc(C(=O)N4CC(CCOC)C4)c4cccnc34)c12 [Compound 128, (3S)-3-{[5-amino-1-({5-[3-(2-methoxyethyl)azetidine-1-carbonyl]quinolin-8-yl}methyl)-1H-pyrazolo[4,3-d]pyrimidin-7-yl]amino}hexan-1-ol] | 102 nM | 54.6 nM
CCC[C@@H](CCO)Nc1nc(N)nc2cnn(Cc3ccc(C(=O)NCCN)c4cccnc34)c12 [Compound 133, 8-[(5-amino-7-{[(3S)-1-hydroxyhexan-3-yl]amino}-1H-pyrazolo[4,3-d]pyrimidin-1-yl)methyl]-N-(2-aminoethyl)quinoline-5-carboxamide] | 593 nM | 409 nM
CCC[C@@H](CCO)Nc1nc(N)nc2cnn(Cc3ccc(C(=O)N4CCC(CCO)CC4)c4cccnc34)c12 [Compound 134, (3S)-3-{[5-amino-1-({5-[4-(2-hydroxyethyl)piperidine-1-carbonyl]quinolin-8-yl}methyl)-1H-pyrazolo[4,3-d]pyrimidin-7-yl]amino}hexan-1-ol] | 194 nM | 35.4 nM
CCC[C@@H](CCO)Nc1nc(N)nc2cnn(Cc3ccc(C(=O)N4CC(O)C4)c4cccnc34)c12 [Compound 135, 1-{8-[(5-amino-7-{[(3S)-1-hydroxyhexan-3-yl]amino}-1H-pyrazolo[4,3-d]pyrimidin-1-yl)methyl]quinoline-5-carbonyl}azetidin-3-ol] | 80.1 nM | 126 nM
CCC[C@@H](CCO)Nc1nc(N)nc2cnn(Cc3ccc(C(=O)NCCCCO)c4cccnc34)c12 [Compound 136, 8-[(5-amino-7-{[(3S)-1-hydroxyhexan-3-yl]amino}-1H-pyrazolo[4,3-d]pyrimidin-1-yl)methyl]-N-(4-hydroxybutyl)quinoline-5-carboxamide] | 418 nM | 231 nM
CCC[C@@H](CCO)Nc1nc(N)nc2cnn(Cc3ccc(C(=O)N4CCNCC4)c4cccnc34)c12 [Compound 137, (3S)-3-[(5-amino-1-{[5-(piperazine-1-carbonyl)quinolin-8-yl]methyl}-1H-pyrazolo[4,3-d]pyrimidin-7-yl)amino]hexan-1-ol] | 20.4 nM | 60.9 nM
Cc1cc(CNc2nc(N)nc3cnn(Cc4ccc(C(=O)N5CC6(CN(C)C6)C5)c5cccnc45)c23)no1 [Compound 138, N7-[(5-methyl-1,2-oxazol-3-yl)methyl]-1-[(5-{6-methyl-2,6-diazaspiro[3.3]heptane-2-carbonyl}quinolin-8-yl)methyl]-1H-pyrazolo[4,3-d]pyrimidine-5,7-diamine] | 41.7 nM | 275 nM
CCC[C@@H](CCO)Nc1nc(N)nc2cnn(Cc3ccc(CN4CCN(CCO)CC4)c4cccnc34)c12 [Compound 139, (3S)-3-({5-amino-1-[(5-{[4-(2-hydroxyethyl)piperazin-1-yl]methyl}quinolin-8-yl)methyl]-1H-pyrazolo[4,3-d]pyrimidin-7-yl}amino)hexan-1-ol] | 16.2 nM | 5.5 nM
CCC[C@@H](CCO)Nc1nc(N)nc2cnn(Cc3ccc(CN4C[C@H]5CN(C)C[C@H]5C4)c4cccnc34)c12 [Compound 140, (3S)-3-({1-[(5-{[(3aR,6aS)-5-methyl-octahydropyrrolo[3,4-c]pyrrol-2-yl]methyl}quinolin-8-yl)methyl]-5-amino-1H-pyrazolo[4,3-d]pyrimidin-7-yl}amino)hexan-1-ol] | 21.1 nM | 8.3 nM
CCC[C@@H](CCO)Nc1nc(N)nc2cnn(Cc3ccc(C4CCNCC4)c4cccnc34)c12 [Compound 141, (3S)-3-[(5-amino-1-{[5-(piperidin-4-yl)quinolin-8-yl]methyl}-1H-pyrazolo[4,3-d]pyrimidin-7-yl)amino]hexan-1-ol] | 0.3 nM | 21.7 nM
